One may read the pIC50 as the negative decadic logarithm of the IC50, by convention in mol/L.

Our source for the IC50 values is patent US12195482B1 (Arcus Biosciences, Inc., priority 2022, dated 2025).

Test [1] has as its target T1, recombinant human MER (Homo sapiens, UniProt Q12866).
T1 construct: purchased Invitrogen
T1 sequence (Q12866 21-999): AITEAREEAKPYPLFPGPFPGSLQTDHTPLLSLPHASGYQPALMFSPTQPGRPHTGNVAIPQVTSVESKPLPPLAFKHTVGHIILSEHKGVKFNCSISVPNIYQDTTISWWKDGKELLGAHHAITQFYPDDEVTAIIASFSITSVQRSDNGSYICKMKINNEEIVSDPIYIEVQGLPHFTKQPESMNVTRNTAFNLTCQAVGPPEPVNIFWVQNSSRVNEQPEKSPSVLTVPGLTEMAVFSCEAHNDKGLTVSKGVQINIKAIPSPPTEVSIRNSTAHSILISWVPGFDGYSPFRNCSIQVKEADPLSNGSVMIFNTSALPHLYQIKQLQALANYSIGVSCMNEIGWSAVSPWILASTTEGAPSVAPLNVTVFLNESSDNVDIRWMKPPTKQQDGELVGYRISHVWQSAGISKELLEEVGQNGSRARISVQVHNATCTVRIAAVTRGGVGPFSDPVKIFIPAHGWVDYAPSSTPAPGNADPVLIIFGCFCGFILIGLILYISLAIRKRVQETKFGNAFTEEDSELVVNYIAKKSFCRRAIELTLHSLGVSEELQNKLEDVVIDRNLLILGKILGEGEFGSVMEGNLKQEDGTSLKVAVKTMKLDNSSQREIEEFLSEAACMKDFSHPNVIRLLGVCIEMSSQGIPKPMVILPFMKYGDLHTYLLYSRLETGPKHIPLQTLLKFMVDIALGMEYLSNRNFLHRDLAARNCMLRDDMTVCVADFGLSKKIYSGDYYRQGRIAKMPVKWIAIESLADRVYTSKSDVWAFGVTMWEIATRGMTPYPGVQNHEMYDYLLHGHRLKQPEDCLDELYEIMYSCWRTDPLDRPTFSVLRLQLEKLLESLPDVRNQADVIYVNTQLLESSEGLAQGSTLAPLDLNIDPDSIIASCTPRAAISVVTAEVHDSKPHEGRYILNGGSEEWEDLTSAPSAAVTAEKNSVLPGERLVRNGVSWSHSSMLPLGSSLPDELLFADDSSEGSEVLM
In words: Biochemical potency, HTRF KinEASE-TK kinase assay. The settings on record: 1 nM MER, 700 μM ATP. Put shortly:
(§1)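 Compounds preincubated 1 h at RT with enzyme in 50 mM HEPES pH 7.4, 10 mM MgCl2, 0.01% BSA, 1 mM DTT; reactions then ran 2 h at RT with 5 nM AXL or 1 nM TYRO3/MER, 800 nM TK substrate-biotin, 700 μM ATP, 1% DMSO. HTRF 665/620 ratio read; percent activity calculated.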
A general note: Time-resolved FRET reads energy transfer from a long-lived donor to a nearby acceptor.

Test [2] deals with T2, recombinant human TYRO3 (Homo sapiens, UniProt Q06418).
T2 construct: purchased Invitrogen
T2 sequence (Q06418 41-890): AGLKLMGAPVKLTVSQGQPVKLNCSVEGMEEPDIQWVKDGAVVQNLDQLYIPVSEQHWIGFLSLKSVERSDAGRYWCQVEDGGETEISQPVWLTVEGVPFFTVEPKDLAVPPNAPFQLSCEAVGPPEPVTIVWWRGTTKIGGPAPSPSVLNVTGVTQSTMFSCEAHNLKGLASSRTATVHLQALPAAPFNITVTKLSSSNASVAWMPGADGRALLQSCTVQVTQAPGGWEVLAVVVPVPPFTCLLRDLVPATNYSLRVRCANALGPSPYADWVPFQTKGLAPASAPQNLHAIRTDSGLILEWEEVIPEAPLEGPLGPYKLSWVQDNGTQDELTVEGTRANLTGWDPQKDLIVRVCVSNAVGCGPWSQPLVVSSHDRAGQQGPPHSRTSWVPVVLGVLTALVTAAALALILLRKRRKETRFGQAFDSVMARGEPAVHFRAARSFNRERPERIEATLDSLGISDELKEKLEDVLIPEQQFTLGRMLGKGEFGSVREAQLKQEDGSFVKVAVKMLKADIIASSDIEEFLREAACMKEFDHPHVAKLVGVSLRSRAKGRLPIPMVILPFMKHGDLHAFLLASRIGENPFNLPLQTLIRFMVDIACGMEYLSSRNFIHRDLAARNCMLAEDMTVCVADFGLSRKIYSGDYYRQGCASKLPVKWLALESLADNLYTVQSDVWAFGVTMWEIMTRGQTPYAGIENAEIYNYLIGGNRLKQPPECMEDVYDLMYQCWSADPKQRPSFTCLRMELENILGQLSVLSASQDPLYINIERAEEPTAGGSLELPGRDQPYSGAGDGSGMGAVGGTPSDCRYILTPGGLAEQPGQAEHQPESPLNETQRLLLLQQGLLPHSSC
In words: Biochemical potency, HTRF KinEASE-TK kinase assay. Particulars: 1 nM TYRO3, 700 μM ATP. Put shortly: as §1

Each structure is given as a SMILES string. pIC50: −log10 of the molar value.

Consider `CN(C(=O)C1CC1)c1cccnc1-c1ccc(-c2n[nH]c3ncc(-c4ccc5c(c4)CC[C@@H](N4C6COCC4C6)CC5)cc23)cc1` [Example 128, N-Methyl-N-[2-(4-{5-[(7S)-7-{3-oxa-6-azabicyclo[3.1.1]heptan-6-yl}-6,7,8,9-tetrahydro-5H-benzo[7]annulen-2-yl]-1H-pyrazolo[3,4-b]pyridin-3-yl}phenyl)pyridin-3-yl]cyclopropanecarboxamide], for which the negative logarithm of the IC50 (pIC50) in test [1] was 6.00 to 7.00; in test [2], over 7.00.

For the compound `Cc1cccnc1-c1ccc(-c2n[nH]c3ncc(-c4ccc5c(c4)CC[C@@H](N[C@H]4CCCOC4)CC5)cc23)cc1` [Example 129, (3S)—N-[(7S)-2-{3-[4-(3-Methylpyridin-2-yl)phenyl]-1H-pyrazolo[3,4-b]pyridin-5-yl}-6,7,8,9-tetrahydro-5H-benzo[7]annulen-7-yl]oxan-3-amine], the pIC50 in test [1] and in test [2] was over 7.00 throughout.

Take `Cc1cccnc1-c1ccc(-c2n[nH]c3ncc(-c4ccc5c(c4)CC[C@@H](N4C[C@@H]6C[C@H]4CO6)CC5)cc23)cc1` [Example 130, (1S,4S)-5-[(7S)-2-{3-[4-(3-Methylpyridin-2-yl)phenyl]-1H-pyrazolo[3,4-b]pyridin-5-yl}-6,7,8,9-tetrahydro-5H-benzo[7]annulen-7-yl]-2-oxa-5-azabicyclo[2.2.1]heptane]: the pIC50 in test [1] and in test [2] was over 7.00 in each case.

Consider `CO[C@H]1C[C@@H](N[C@H]2CCc3ccc(-c4cnc5[nH]nc(-c6ccc(-c7ncccc7C)cc6)c5c4)cc3CC2)C1` [Example 131, (7S)-2-{3-[4-(3-Methylpyridin-2-yl)phenyl]-1H-pyrazolo[3,4-b]pyridin-5-yl}-N-[cis-3-methoxycyclobutyl]-6,7,8,9-tetrahydro-5H-benzo[7]annulen-7-amine], for which the pIC50 in test [1] and in test [2] was over 7.00 each time.

Take `COC[C@H]1CCN([C@H]2CCc3ccc(-c4cnc5[nH]nc(-c6ccc(-c7ncccc7C)cc6)c5c4)cc3CC2)C1` [Example 132, 2-(4-{5-[(7S)-7-[(3S)-3-(Methoxymethyl)pyrrolidin-1-yl]-6,7,8,9-tetrahydro-5H-benzo[7]annulen-2-yl]-1H-pyrazolo[3,4-b]pyridin-3-yl}phenyl)-3-methylpyridine]: the pIC50 in test [1] and in test [2] was over 7.00 throughout.

As to `c1ccc(-c2ccc(-c3n[nH]c4ncc(-c5ccc6c(c5)CC[C@@H](N5C7COCC5C7)CC6)cc34)cc2)nc1` [Example 154, 6-[(7S)-2-{3-[4-(Pyridin-2-yl)phenyl]-2H-pyrazolo[3,4-b]pyridin-5-yl}-6,7,8,9-tetrahydro-5H-benzo[7]annulen-7-yl]-3-oxa-6-azabicyclo[3.1.1]heptane], the negative-log IC50 (pIC50) in test [1] and in test [2] was 6.00 to 7.00 in each case.

On to `c1ccc(-c2ccc(-c3c[nH]c4ncc(-c5ccc6c(c5)CC[C@@H](N5C7COCC5C7)CC6)cc34)cc2)nc1` [Example 155, 6-[(7S)-2-{3-[4-(Pyridin-2-yl)phenyl]-1H-pyrrolo[2,3-b]pyridin-5-yl}-6,7,8,9-tetrahydro-5H-benzo[7]annulen-7-yl]-3-oxa-6-azabicyclo[3.1.1]heptane], for which the negative-log IC50 (pIC50) in test [1] was under 6.00; in test [2] it was 6.00 to 7.00.

Consider `C[C@@H]1CCCN1[C@@]1(C)CCc2ccc(-c3cnc4[nH]cc(-c5ccc(-c6ccccn6)cc5)c4c3)cc2CC1` [Example 156, 2-(4-{5-[(7S)-7-Methyl-7-[(2R)-2-methylpyrrolidin-1-yl]-6,7,8,9-tetrahydro-5H-benzo[7]annulen-2-yl]-1H-pyrrolo[2,3-b]pyridin-3-yl}phenyl)pyridine], for which the pIC50 in test [1] and in test [2] was 6.00 to 7.00 throughout.

With `c1cncc(-c2ccc(-c3c[nH]c4ncc(-c5ccc6c(c5)CC[C@@H](N5C7COCC5C7)CC6)cc34)cc2)c1` [Example 158, 6-[(7S)-2-{3-[4-(Pyridin-3-yl)phenyl]-1H-pyrrolo[2,3-b]pyridin-5-yl}-6,7,8,9-tetrahydro-5H-benzo[7]annulen-7-yl]-3-oxa-6-azabicyclo[3.1.1]heptane], the negative logarithm of the IC50 (pIC50) in test [1] and in test [2] was under 6.00 each time.

Consider `Cc1cc(-c2n[nH]c3ncc(-c4ccc5c(c4)CC[C@@H](N4C6COCC4C6)CC5)cc23)ccc1-c1ccccn1` [Example 159, 6-[(7S)-2-{3-[3-Methyl-4-(pyridin-2-yl)phenyl]-2H-pyrazolo[3,4-b]pyridin-5-yl}-6,7,8,9-tetrahydro-5H-benzo[7]annulen-7-yl]-3-oxa-6-azabicyclo[3.1.1]heptane], for which the negative-log IC50 (pIC50) in test [1] and in test [2] was 6.00 to 7.00 in each case.

`Cc1cccnc1-c1ccc(-c2n[nH]c3ncc(-c4ccc5c(c4)CC[C@@](C)(N4CCC[C@H]4C)CC5)cc23)cc1` [Example 163, 3-Methyl-2-(4-{5-[(7S)-7-methyl-7-[(2R)-2-methylpyrrolidin-1-yl]-6,7,8,9-tetrahydro-5H-benzo[7]annulen-2-yl]-2H-pyrazolo[3,4-b]pyridin-3-yl}phenyl)pyridine]: the negative logarithm of the IC50 (pIC50) in test [1] and in test [2] was over 7.00 in each case.

Regarding `COc1cccnc1-c1ccc(-c2c[nH]c3ncc(-c4ccc5c(c4)CC[C@@H](N4C6COCC4C6)CC5)cc23)cc1` [Example 164, 6-[(7S)-2-{3-[4-(3-Methoxypyridin-2-yl)phenyl]-1H-pyrrolo[2,3-b]pyridin-5-yl}-6,7,8,9-tetrahydro-5H-benzo[7]annulen-7-yl]-3-oxa-6-azabicyclo[3.1.1]heptane], the pIC50 is 6.00 to 7.00 in test [1] and over 7.00 in test [2].

As for `CN(C)C(=O)c1cccnc1-c1ccc(-c2c[nH]c3ncc(-c4ccc5c(c4)CC[C@@H](N4C6COCC4C6)CC5)cc23)cc1` [Example 165, N,N-Dimethyl-2-(4-{5-[(7S)-7-{3-oxa-6-azabicyclo[3.1.1]heptan-6-yl}-6,7,8,9-tetrahydro-5H-benzo[7]annulen-2-yl]-1H-pyrrolo[2,3-b]pyridin-3-yl}phenyl)pyridine-3-carboxamide], the negative logarithm of the IC50 (pIC50) in test [1] is 6.00 to 7.00; in test [2] it was over 7.00.

Regarding `COc1cccnc1-c1ccc(-c2n[nH]c3ncc(-c4ccc5c(c4)CC[C@@H](N4C6COCC4C6)CC5)cc23)cc1` [Example 166, 6-[(7S)-2-{3-[4-(3-Methoxypyridin-2-yl)phenyl]-1H-pyrazolo[3,4-b]pyridin-5-yl}-6,7,8,9-tetrahydro-5H-benzo[7]annulen-7-yl]-3-oxa-6-azabicyclo[3.1.1]heptane], the figures for the pIC50 in test [1] and in test [2] were 6.00 to 7.00 and over 7.00, respectively.

Regarding `CN(C)C(=O)c1cccnc1-c1ccc(-c2n[nH]c3ncc(-c4ccc5c(c4)CC[C@@H](N4C6COCC4C6)CC5)cc23)cc1` [Example 167, N,N-Dimethyl-2-(4-{5-[(7S)-7-{3-oxa-6-azabicyclo[3.1.1]heptan-6-yl}-6,7,8,9-tetrahydro-5H-benzo[7]annulen-2-yl]-1H-pyrazolo[3,4-b]pyridin-3-yl}phenyl)pyridine-3-carboxamide], the pIC50 in test [1] was 6.00 to 7.00; in test [2] it was over 7.00.
